What follows are compounds tested on recombinant rabies virus 1088 strain expressing Gaussia Luciferase (GLuc) (1088/GLuc). Settings: read-out: Anti-rabies activity.
Type: cell-based

O=C(NCCc1ccccc1)[C@@]12C[C@@H]3CN(CC4CCCCC4)[C@@H]([C@@H]3CN1)[C@H]2Cc1ccccc1 [IF-710] and O=C(NCCc1ccccc1)[C@@]12C[C@@H]3CN(CC4CCCCC4)[C@@H]([C@@H]3CN1)[C@H]2Cc1ccc(O)cc1 [IF-439] cannot be ordered by IC50: less than 5 µM for the first, less than 5 µM for the second.

First: NC(=O)C[C@@H]1[C@@H]2[C@@H]3CN[C@@]1(C(=O)NCc1ccccc1)C[C@@H]3CN2CC1CCCCC1 [IF-246]
Second: CC(C)C[C@@H]1[C@@H]2[C@@H]3CN[C@@]1(C(=O)NCc1ccccc1)C[C@@H]3CN2CC1CCCCC1 [IF-644]
The IC50 of the first is higher: 10 to 30 µM for the first, less than 5 µM for the second. The second is the more potent here.

Compared with N=C(N)NCCCNC(=O)[C@@]12C[C@@H]3CN(Cc4cccc5ccccc45)[C@@H]([C@@H]3CN1)[C@H]2CCc1ccccc1 [IF-389], N=C(N)NCCCNC(=O)[C@]12NC[C@H]3C[C@H]1CN(Cc1cccc4ccccc14)[C@H]2[C@@H]3Cc1ccccc1 [IB-351] is higher in IC50: less than 5 µM for the first, 10 to 30 µM for the second. The first is the more potent here.

First: CC(C)C[C@@H]1[C@@H]2[C@@H]3CN[C@@]1(C(=O)NCc1ccc(O)cc1)C[C@@H]3CN2CCc1ccccc1 [IF-470]
Second: CC(C)C[C@@H]1[C@@H]2[C@@H]3CN[C@@]1(C(=O)NCc1ccccc1)C[C@@H]3CN2CCc1ccccc1 [IF-639]
The IC50 of the first is higher: 10 to 30 µM for the first, less than 5 µM for the second. The second is the more potent here.

First: Cc1ccc(CN2C[C@H]3C[C@@]4(C(=O)NCc5ccccc5)[C@H](CC(C)C)[C@@H]2[C@@H]3CN4C(=O)NCc2ccccc2)cc1 [IF-864]
Second: Cc1ccc(CN2C[C@H]3C[C@@]4(C(=O)NCc5ccccc5)[C@H](CC(C)C)[C@@H]2[C@@H]3CN4C(=O)Cc2ccccc2)cc1 [IF-859]
The IC50 of the first is higher: 10 to 30 µM for the first, 5 to 10 µM for the second.

CC(C)CNC(=O)[C@@]12C[C@@H]3CN(CC4CCCCC4)[C@@H]([C@@H]3CN1)[C@H]2CC(C)C [IF-742] and CC(C)CC[C@@H]1[C@@H]2[C@@H]3CN[C@@]1(C(=O)NCc1ccccc1)C[C@@H]3CN2CC1CCCCC1 [IF-740] fall in the same range of IC50: 10 to 30 µM for the first, 10 to 30 µM for the second.

First: CC(C)CN1C[C@H]2C[C@]3(C(=O)NCc4ccc(F)cc4)NC[C@H]2[C@H]1[C@H]3CCc1ccccc1 (relative stereo) [IF-525]
Second: CC(C)C[C@@H]1[C@@H]2[C@@H]3CN[C@@]1(C(=O)NCCc1ccccc1)C[C@@H]3CN2Cc1ccc(F)cc1 [IF-714]
The IC50 of the first is higher: 10 to 30 µM for the first, less than 5 µM for the second. The second is the more potent here.

Compared with CC(C)CC[C@@H]1[C@@H]2[C@@H]3CN[C@@]1(C(=O)NCc1ccccc1)C[C@@H]3CN2CC(C)C [IF-675], CC(C)CNC(=O)[C@@]12C[C@@H]3CN(CC(C)C)[C@@H]([C@@H]3CN1)[C@H]2Cc1cccc2ccccc12 [IF-680] is higher in IC50: less than 5 µM for the first, 10 to 30 µM for the second. The first is the more potent here.

First: Cc1ccc(CN2C[C@@H]3C[C@@H]4CN(C(=O)OCC(C)C)[C@]3(C(=O)NCc3ccccc3)[C@@H]2[C@@H]4CC(C)C)cc1 (relative stereo) [IB-886]
Second: COC(=O)N1C[C@@H]2[C@H]3CN(Cc4ccc(C)cc4)[C@@H]2[C@@H](CC(C)C)[C@]1(C(=O)NCc1ccccc1)C3 [IF-860]
The IC50 of the first is lower: 5 to 10 µM for the first, 10 to 30 µM for the second.

Compared with COc1ccc(CN2CC3CC4(C(=O)NCc5ccccc5)N=CC3C2C4CC(C)C)cc1 (centres unmarked) [IIF-85], CC(C)CC1C2C3C=NC1(C(=O)NCc1ccccc1)CC3CN2Cc1ccc(C(C)(C)C)cc1 (centres unmarked) [IIF-95] is lower in IC50: 5 to 10 µM for the first, less than 5 µM for the second. The second is the more potent here.

First: CCOc1ccc(CN2C[C@@H]3C[C@@H]4CN[C@]3(C(=O)NCc3ccccc3)[C@@H]2[C@@H]4CC(C)C)cc1 [IB-878]
Second: CC(C)C[C@@H]1[C@H]2CN[C@@]3(C(=O)NCc4ccccc4)[C@@H](C2)CN(Cc2ccc(Cl)cc2)[C@@H]13 [IB-864]
The IC50 of the first is higher: 10 to 30 µM for the first, 5 to 10 µM for the second.

CC(C)C[C@@H]1[C@@H]2[C@@H]3CN[C@@]1(C(=O)NCc1cccc4ccccc14)C[C@@H]3CN2Cc1ccc(O)cc1 (relative stereo) [IF-578] and CC(C)CN1C[C@H]2C[C@]3(C(=O)NCc4cccc5ccccc45)NC[C@H]2[C@H]1[C@H]3Cc1ccc(O)cc1 (relative stereo) [IF-568] cannot be ordered by IC50: less than 5 µM for the first, less than 5 µM for the second.

CCCCCCNC(=O)[C@@]12C[C@@H]3CN(Cc4ccc(F)cc4)[C@@H]([C@@H]3CN1)[C@H]2CCCNC(=N)N [IF-298] and CC(C)NC(=O)[C@@]12C[C@@H]3CN(Cc4ccc(F)cc4)[C@@H]([C@@H]3CN1)[C@H]2CCCNC(=N)N [IF-274] fall in the same range of IC50: 10 to 30 µM for the first, 10 to 30 µM for the second.

CC(C)CCN1C[C@H]2C[C@]3(C(=O)NCCO)NC[C@H]2[C@H]1[C@H]3Cc1cccc2ccccc12 [IF-611] and CC(C)CCN1C[C@H]2C[C@]3(C(=O)NCc4ccc(O)cc4)NC[C@H]2[C@H]1[C@H]3Cc1cccc2ccccc12 [IF-465] fall in the same range of IC50: 10 to 30 µM for the first, 10 to 30 µM for the second.

CC(C)CC[C@@H]1[C@@H]2[C@@H]3CN[C@@]1(C(=O)NCc1ccccc1)C[C@@H]3CN2CC(C)C [IF-850] and CC(C)C[C@@H]1[C@@H]2[C@@H]3CN[C@@]1(C(=O)NCc1ccccc1)C[C@@H]3CN2Cc1ccc(N(C)C)cc1 [IF-848] fall in the same range of IC50: 5 to 10 µM for the first, 5 to 10 µM for the second.

First: CC(C)C[C@@H]1[C@H]2CN[C@@]3(C(=O)NCc4cccc5ccccc45)[C@@H](C2)CN(CC(N)=O)[C@@H]13 (relative stereo) [IB-81]
Second: CC(C)C[C@@H]1[C@H]2CN[C@@]3(C(=O)NCc4ccc(O)cc4)[C@@H](C2)CN(Cc2ccccc2)[C@@H]13 [IB-464]
The IC50 of the first is higher: 10 to 30 µM for the first, less than 5 µM for the second. The second is the more potent here.

CC(C)CCNC(=O)[C@@]12C[C@@H]3CN(Cc4ccccc4)[C@@H]([C@@H]3CN1)[C@H]2Cc1ccccc1 [IF-665] and CC(C)CCNC(=O)[C@@]12C[C@@H]3CN(Cc4ccc(F)cc4)[C@@H]([C@@H]3CN1)[C@H]2Cc1ccccc1 (relative stereo) [IF-584] cannot be ordered by IC50: less than 5 µM for the first, less than 5 µM for the second.

O=C(O)CCNC(=O)[C@]12NC[C@H]3C[C@H]1CN(CC1CCCCC1)[C@H]2[C@@H]3Cc1cccc2ccccc12 [IB-614] and O=C(O)CCNC(=O)[C@]12NC[C@H]3C[C@H]1CN(Cc1ccccc1)[C@H]2[C@@H]3Cc1cccc2ccccc12 [IB-616] fall in the same range of IC50: 10 to 30 µM for the first, 10 to 30 µM for the second.

O=C(NCc1ccc(O)cc1)[C@]12NC[C@H]3C[C@H]1CN(Cc1cccc4ccccc14)[C@H]2[C@@H]3Cc1cccc2ccccc12 [IB-417] and O=C(NCCO)[C@]12NC[C@H]3C[C@H]1CN(Cc1ccccc1)[C@H]2[C@@H]3Cc1cccc2ccccc12 [IB-602] fall in the same range of IC50: 10 to 30 µM for the first, 10 to 30 µM for the second.

CC(C)CCNC(=O)[C@]12NC[C@H]3C[C@H]1CN(CC(C)C)[C@H]2[C@@H]3Cc1ccc(O)cc1 [IB-684] and CC(C)CC[C@@H]1[C@H]2CN[C@@]3(C(=O)NCc4ccc(O)cc4)[C@@H](C2)CN(CC(C)C)[C@@H]13 [IB-465] fall in the same range of IC50: 10 to 30 µM for the first, 10 to 30 µM for the second.

CC(C)CCN1C[C@@H]2C[C@@H]3CN[C@]2(C(=O)NCc2ccc(F)cc2)[C@@H]1[C@@H]3CCC(=O)O [IB-386] and CC(C)CCC1C2CNC3(C(=O)NCc4ccc(O)cc4)C(C2)CN(Cc2ccc(F)cc2)C13 (centres unmarked) [IB-582] fall in the same range of IC50: 10 to 30 µM for the first, 10 to 30 µM for the second.

First: NC(=O)CN1C[C@@H]2C[C@@H]3CN[C@]2(C(=O)NCc2ccc(F)cc2)[C@@H]1[C@@H]3CCc1ccccc1 [IB-95]
Second: NC(=O)CCNC(=O)C12NCC3CC1CN(Cc1ccccc1)C2C3CCc1ccccc1 (centres unmarked) [IB-535]
The IC50 of the first is lower: less than 5 µM for the first, 10 to 30 µM for the second. The first is the more potent here.

CC(C)CC[C@@H]1[C@H]2CN[C@@]3(C(=O)NCCCNC(=N)N)[C@@H](C2)CN(CC2CCCCC2)[C@@H]13 [IB-361] and CC(C)C[C@@H]1[C@H]2CN[C@@]3(C(=O)NCCO)[C@@H](C2)CN(CC2CCCCC2)[C@@H]13 [IB-646] fall in the same range of IC50: 10 to 30 µM for the first, 10 to 30 µM for the second.

Compared with CCCCCCNC(=O)[C@]12NC[C@H]3C[C@H]1CN(CCO)[C@H]2[C@@H]3CCC(C)C [IB-490], CC(C)CC[C@@H]1[C@H]2CN[C@@]3(C(=O)NCCC(N)=O)[C@@H](C2)CN(Cc2ccccc2)[C@@H]13 [IB-274] is higher in IC50: less than 5 µM for the first, 10 to 30 µM for the second.

O=C(NCCc1ccccc1)[C@@]12C[C@@H]3CN(Cc4ccc(F)cc4)[C@@H]([C@@H]3CN1)[C@H]2Cc1ccccc1 (relative stereo) [IF-586] and O=C(NCc1ccc(O)cc1)[C@@]12C[C@@H]3CN(CCc4ccccc4)[C@@H]([C@@H]3CN1)[C@H]2Cc1ccccc1 [IF-469] fall in the same range of IC50: 10 to 30 µM for the first, 10 to 30 µM for the second.

First: CCCCCCNC(=O)[C@]12NC[C@H]3C[C@H]1CN(Cc1ccc(F)cc1)[C@H]2[C@@H]3Cc1ccc(O)cc1 [IB-656]
Second: CCCCCCNC(=O)C12NCC3CC1CN(Cc1ccccc1)C2C3Cc1ccccc1 (centres unmarked) [IB-562]
The IC50 of the first is lower: less than 5 µM for the first, 10 to 30 µM for the second.

CC(C)CNC(=O)[C@]12NC[C@H]3C[C@H]1CN(CC1CCCCC1)[C@H]2[C@@H]3Cc1ccc(O)cc1 [IB-770] and CC(C)CNC(=O)[C@]12NC[C@@H]3C[C@H]1CN(CC(C)C)[C@H]2[C@@H]3Cc1ccccc1 (relative stereo) [IB-3] fall in the same range of IC50: 10 to 30 µM for the first, 10 to 30 µM for the second.

O=C(NCc1ccc(O)cc1)[C@@]12C[C@@H]3CN(CC4CCCCC4)[C@@H]([C@@H]3CN1)[C@H]2Cc1ccccc1 [IF-477] and Cc1ccc(CN2C[C@H]3C[C@]4(C(=O)NCc5ccccc5)NC[C@H]3[C@H]2[C@H]4CC(C)C)cc1 [IF-842] cannot be ordered by IC50: less than 5 µM for the first, less than 5 µM for the second.

First: CC(C)CNC(=O)[C@@]12C[C@@H]3CN(Cc4ccc(F)cc4)[C@@H]([C@@H]3CN1)[C@H]2CC(C)C [IF-654]
Second: CC(C)C[C@@H]1[C@@H]2[C@@H]3CN[C@@]1(C(=O)NCc1ccc(O)cc1)C[C@@H]3CN2Cc1ccc(N(C)C)cc1 [IF-867]
The IC50 of the first is lower: less than 5 µM for the first, 10 to 30 µM for the second. The first is the more potent here.

CCOc1ccc(CN2CC3CC4C=NC3(C(=O)NCc3ccccc3)C2C4CC(C)C)cc1 (centres unmarked) [IIB-97] and Cc1ccc(CNC(=O)[C@@]23C[C@@H]4CN(CC(C)C)[C@@H]([C@@H]4C=N2)[C@H]3Cc2ccccc2)cc1 (relative stereo) [IIF-16] fall in the same range of IC50: 10 to 30 µM for the first, 10 to 30 µM for the second.

First: O=C(NCCc1ccccc1)[C@@]12C[C@@H]3CN(Cc4ccc(O)cc4)[C@@H]([C@@H]3CN1)[C@H]2Cc1cccc2ccccc12 [IF-580]
Second: CC(C)CCN1C[C@H]2C[C@]3(C(=O)NCc4cccc5ccccc45)NC[C@H]2[C@H]1[C@H]3Cc1ccc(O)cc1 [IF-706]
The IC50 of the first is higher: 10 to 30 µM for the first, less than 5 µM for the second. The second is the more potent here.

First: O=C(NCc1ccccc1)[C@]12NC[C@H]3C[C@H]1CN(Cc1ccc(F)cc1)[C@H]2[C@@H]3Cc1ccccc1 [IB-772]
Second: N=C(N)NCCCN1C[C@@H]2C[C@@H]3CN[C@]2(C(=O)NCc2ccccc2)[C@@H]1[C@@H]3Cc1cccc2ccccc12 [IB-300]
The IC50 of the first is lower: less than 5 µM for the first, 10 to 30 µM for the second. The first is the more potent here.

First: CC(C)NC(=O)[C@]12NC[C@H]3C[C@H]1CN(Cc1ccc(O)cc1)[C@H]2[C@@H]3Cc1cccc2ccccc12 [IB-502]
Second: CC(C)CC1C2C3C=NC1(C(=O)NCc1ccccc1)CC3CN2Cc1cccc(Cl)c1 (centres unmarked) [IIF-84]
The IC50 of the first is lower: less than 5 µM for the first, 5 to 10 µM for the second.

Same assay, conditions: read-out: IC50

In order of rising IC50:
1. CC(C)CNC(=O)[C@]12NC[C@@H]3C[C@H]1CN(CC(C)C)[C@H]2[C@@H]3Cc1ccccc1 (relative stereo) [IB-3]  19.6 µM
2. Cc1ccc(CNC(=O)[C@@]23C[C@@H]4CN(CC(C)C)[C@@H]([C@@H]4C=N2)[C@H]3Cc2ccccc2)cc1 (relative stereo) [IIF-16]  28.7 µM
